≈ marks a conversion by molar mass, not a printed value.

By MIC is commonly meant the lowest concentration found to suppress growth.

For one assay, the system named is Staphylococcus aureus. Put plainly: In vitro antibacterial activity against methicillin-resistant Staphylococcus aureus (MRSA) C6068. It counts as functional.
In turn, `CC(=O)NC[C@H]1CN(c2ccc(N3CCN(C(=O)c4cc(-c5nccs5)no4)CC3)c(F)c2)C(=O)O1` gave an MIC of 0.5 µg/mL (≈ 0.972 µM).

The compound `CC(=O)NC[C@H]1CN(c2ccc(N3CCN(C(=O)c4cc(C)no4)CC3)c(F)c2)C(=O)O1` had an MIC of 2 µg/mL (≈ 4.49 µM).

With `COc1cc(C(=O)N2CCN(c3ccc(N4C[C@H](CNC(C)=O)OC4=O)cc3F)CC2)on1`, the lowest concentration to inhibit growth (MIC) was 2 µg/mL (≈ 4.33 µM).

Turning to `CC(=O)NC[C@H]1CN(c2ccc(N3CCN(C(=O)c4cc(C(F)(F)F)no4)CC3)c(F)c2)C(=O)O1`, the MIC came out at 2 µg/mL (≈ 4 µM).

Another assay concerns Staphylococcus epidermidis. Put plainly: In vitro antibacterial activity against Staphylococcus epidermis (S.e.1) […]. It counts as functional.
Compound `CC(=O)NC[C@H]1CN(c2ccc(N3CCN(C(=O)c4cc(-c5nccs5)no4)CC3)c(F)c2)C(=O)O1` returned an MIC of 0.5 µg/mL (≈ 0.972 µM).

Take `CC(=O)NC[C@H]1CN(c2ccc(N3CCN(C(=O)c4cc(C)no4)CC3)c(F)c2)C(=O)O1`: inhibition of growth (MIC) required 0.5 µg/mL (≈ 1.12 µM).

The compound `COc1cc(C(=O)N2CCN(c3ccc(N4C[C@H](CNC(C)=O)OC4=O)cc3F)CC2)on1` yielded an MIC of 0.5 µg/mL (≈ 1.08 µM).

`CC(=O)NC[C@H]1CN(c2ccc(N3CCN(C(=O)c4cc(C(F)(F)F)no4)CC3)c(F)c2)C(=O)O1` came in with an MIC of 2 µg/mL (≈ 4 µM).

In the next assay the test system is Streptococcus pyogenes. The experiment in a line: In vitro antibacterial activity against Streptococcus pyogenes ATCC 8668 (S.p.1). Format: functional.
`CC(=O)NC[C@H]1CN(c2ccc(N3CCN(C(=O)c4cc(-c5nccs5)no4)CC3)c(F)c2)C(=O)O1` displayed an MIC of 0.25 µg/mL (≈ 0.486 µM).

For `CC(=O)NC[C@H]1CN(c2ccc(N3CCN(C(=O)c4cc(C)no4)CC3)c(F)c2)C(=O)O1`, the MIC is 0.5 µg/mL (≈ 1.12 µM).

For the compound `COc1cc(C(=O)N2CCN(c3ccc(N4C[C@H](CNC(C)=O)OC4=O)cc3F)CC2)on1`, 0.5 µg/mL (≈ 1.08 µM) was the least that counted as inhibitory (MIC).

`CC(=O)NC[C@H]1CN(c2ccc(N3CCN(C(=O)c4cc(C(F)(F)F)no4)CC3)c(F)c2)C(=O)O1` yielded an MIC of 1 µg/mL (≈ 2 µM).

The next assay deals with Enterococcus faecium. The experiment in a line: In vitro antibacterial activity against vancomycin-resistant Enterococcus faecium C6487 (VRE). Format: functional.
For the compound `CC(=O)NC[C@H]1CN(c2ccc(N3CCN(C(=O)c4cc(-c5nccs5)no4)CC3)c(F)c2)C(=O)O1`, the MIC is 0.5 µg/mL (≈ 0.972 µM).

Take `CC(=O)NC[C@H]1CN(c2ccc(N3CCN(C(=O)c4cc(C)no4)CC3)c(F)c2)C(=O)O1`: it took 2 µg/mL (≈ 4.49 µM) to inhibit growth (MIC).

On to `COc1cc(C(=O)N2CCN(c3ccc(N4C[C@H](CNC(C)=O)OC4=O)cc3F)CC2)on1`, for which it took 2 µg/mL (≈ 4.33 µM) to inhibit growth (MIC).

The compound `CC(=O)NC[C@H]1CN(c2ccc(N3CCN(C(=O)c4cc(C(F)(F)F)no4)CC3)c(F)c2)C(=O)O1` registered an MIC of 4 µg/mL (≈ 8.01 µM).

The next assay has as its system Staphylococcus epidermidis. Put plainly: In vitro antibacterial activity against Staphylococcus epidermis (S.e.2) C2235. It counts as functional.
In turn, `CC(=O)NC[C@H]1CN(c2ccc(N3CCN(C(=O)c4cc(-c5nccs5)no4)CC3)c(F)c2)C(=O)O1` yielded an MIC of 0.5 µg/mL (≈ 0.972 µM).

Regarding `CC(=O)NC[C@H]1CN(c2ccc(N3CCN(C(=O)c4cc(C)no4)CC3)c(F)c2)C(=O)O1`, the MIC is 1 µg/mL (≈ 2.24 µM).

For `COc1cc(C(=O)N2CCN(c3ccc(N4C[C@H](CNC(C)=O)OC4=O)cc3F)CC2)on1`, it took 0.5 µg/mL (≈ 1.08 µM) to inhibit growth (MIC).

`CC(=O)NC[C@H]1CN(c2ccc(N3CCN(C(=O)c4cc(C(F)(F)F)no4)CC3)c(F)c2)C(=O)O1` had an MIC of 2 µg/mL (≈ 4 µM). This MIC is about 4-fold higher than that of the compound before.

Another assay has as its system Staphylococcus aureus. Put plainly: In vitro antibacterial activity against Staphylococcus aureus (S. a.) ATCC 29213. Format: functional.
For `CC(=O)NC[C@H]1CN(c2ccc(N3CCN(C(=O)c4cc(-c5nccs5)no4)CC3)c(F)c2)C(=O)O1`, the MIC is 2 µg/mL (≈ 3.89 µM).

`CC(=O)NC[C@H]1CN(c2ccc(N3CCN(C(=O)c4cc(C)no4)CC3)c(F)c2)C(=O)O1` yielded an MIC of 4 µg/mL (≈ 8.98 µM).

`COc1cc(C(=O)N2CCN(c3ccc(N4C[C@H](CNC(C)=O)OC4=O)cc3F)CC2)on1`: the MIC worked out at 4 µg/mL (≈ 8.67 µM).

`CC(=O)NC[C@H]1CN(c2ccc(N3CCN(C(=O)c4cc(C(F)(F)F)no4)CC3)c(F)c2)C(=O)O1` had an MIC of 4 µg/mL (≈ 8.01 µM).

The subject of another assay is Enterococcus faecalis. The experiment in a line: In vitro antibacterial activity against Enterococcus faecalis C6291 (E.f.1). Format: functional.
On to `CC(=O)NC[C@H]1CN(c2ccc(N3CCN(C(=O)c4cc(-c5nccs5)no4)CC3)c(F)c2)C(=O)O1`, for which the MIC came out at 1 µg/mL (≈ 1.94 µM).

`CC(=O)NC[C@H]1CN(c2ccc(N3CCN(C(=O)c4cc(C)no4)CC3)c(F)c2)C(=O)O1`: the MIC turned out to be 4 µg/mL (≈ 8.98 µM).

`COc1cc(C(=O)N2CCN(c3ccc(N4C[C@H](CNC(C)=O)OC4=O)cc3F)CC2)on1` yielded an MIC of 2 µg/mL (≈ 4.33 µM).

In turn, `CC(=O)NC[C@H]1CN(c2ccc(N3CCN(C(=O)c4cc(C(F)(F)F)no4)CC3)c(F)c2)C(=O)O1` had an MIC of 4 µg/mL (≈ 8.01 µM).

In the next assay the test system is Enterococcus faecium. The experiment in a line: In vitro antibacterial activity against Enterococcus faecium C6301 (E.f.2). It counts as functional.
In turn, `CC(=O)NC[C@H]1CN(c2ccc(N3CCN(C(=O)c4cc(-c5nccs5)no4)CC3)c(F)c2)C(=O)O1` yielded an MIC of 1 µg/mL (≈ 1.94 µM).

Consider `CC(=O)NC[C@H]1CN(c2ccc(N3CCN(C(=O)c4cc(C)no4)CC3)c(F)c2)C(=O)O1`, for which the MIC stood at 2 µg/mL (≈ 4.49 µM).

The compound `COc1cc(C(=O)N2CCN(c3ccc(N4C[C@H](CNC(C)=O)OC4=O)cc3F)CC2)on1` gave an MIC of 2 µg/mL (≈ 4.33 µM).

`CC(=O)NC[C@H]1CN(c2ccc(N3CCN(C(=O)c4cc(C(F)(F)F)no4)CC3)c(F)c2)C(=O)O1` had an MIC of 4 µg/mL (≈ 8.01 µM).

The next assay deals with Staphylococcus aureus. The experiment in a line: In vitro antibacterial activity against ciprofloxacin-resistant Staphylococcus aureus (CRSA) C6043. Format: functional.
With `CC(=O)NC[C@H]1CN(c2ccc(N3CCN(C(=O)c4cc(-c5nccs5)no4)CC3)c(F)c2)C(=O)O1`, the minimal inhibitory concentration (MIC) came to 0.5 µg/mL (≈ 0.972 µM).

On to `CC(=O)NC[C@H]1CN(c2ccc(N3CCN(C(=O)c4cc(C)no4)CC3)c(F)c2)C(=O)O1`, for which the lowest concentration to inhibit growth (MIC) was 4 µg/mL (≈ 8.98 µM).

Turning to `COc1cc(C(=O)N2CCN(c3ccc(N4C[C@H](CNC(C)=O)OC4=O)cc3F)CC2)on1`, inhibition of growth (MIC) required 4 µg/mL (≈ 8.67 µM).

In turn, `CC(=O)NC[C@H]1CN(c2ccc(N3CCN(C(=O)c4cc(C(F)(F)F)no4)CC3)c(F)c2)C(=O)O1` registered an MIC of 4 µg/mL (≈ 8.01 µM).

A further assay concerns Staphylococcus aureus. Put plainly: In vitro antibacterial activity against methicillin-susceptible Staphylococcus aureus (MSSA) C2214. Format: functional.
`CC(=O)NC[C@H]1CN(c2ccc(N3CCN(C(=O)c4cc(-c5nccs5)no4)CC3)c(F)c2)C(=O)O1` showed an MIC of 1 µg/mL (≈ 1.94 µM).

For `CC(=O)NC[C@H]1CN(c2ccc(N3CCN(C(=O)c4cc(C)no4)CC3)c(F)c2)C(=O)O1`, the minimal inhibitory concentration (MIC) turned out to be 8 µg/mL (≈ 18 µM).

On to `COc1cc(C(=O)N2CCN(c3ccc(N4C[C@H](CNC(C)=O)OC4=O)cc3F)CC2)on1`, for which the MIC is 4 µg/mL (≈ 8.67 µM).

In turn, `CC(=O)NC[C@H]1CN(c2ccc(N3CCN(C(=O)c4cc(C(F)(F)F)no4)CC3)c(F)c2)C(=O)O1` gave an MIC of 4 µg/mL (≈ 8.01 µM).

The test system of a further assay is Streptococcus pyogenes. Put plainly: In vitro antibacterial activity against Streptococcus pyogenes C6003 (S.p.2). Format: functional.
`CC(=O)NC[C@H]1CN(c2ccc(N3CCN(C(=O)c4cc(-c5nccs5)no4)CC3)c(F)c2)C(=O)O1` returned an MIC of 0.5 µg/mL (≈ 0.972 µM).

In turn, `CC(=O)NC[C@H]1CN(c2ccc(N3CCN(C(=O)c4cc(C)no4)CC3)c(F)c2)C(=O)O1` showed an MIC of 0.5 µg/mL (≈ 1.12 µM).

`COc1cc(C(=O)N2CCN(c3ccc(N4C[C@H](CNC(C)=O)OC4=O)cc3F)CC2)on1` had an MIC of 0.5 µg/mL (≈ 1.08 µM).

Regarding `CC(=O)NC[C@H]1CN(c2ccc(N3CCN(C(=O)c4cc(C(F)(F)F)no4)CC3)c(F)c2)C(=O)O1`, the MIC turned out to be 1 µg/mL (≈ 2 µM).

The values above are taken from ChEMBL document CHEMBL1131977, “Synthesis and in vitro activity of new oxazolidinone antibacterial agents having substituted isoxazoles” (1999).
